{"source": "paper PMC11044151", "about": "“Development of Half-Sandwich Ru, Os, Rh, and Ir Complexes Bearing the Pyridine-2-ylmethanimine Bidentate Ligand Derived from 7-Chloroquinazolin-4(3H)-one with Enhanced Antiproliferative Activity” (ACS Omega, 2024)", "system": "SW620 cells", "experiment": "ROS generation, dihydrorhodamine 123 oxidation assay", "format": "cell-based, human", "details": "SW620, 1 μM compound, 4 h, DHR123 with 10 μM verapamil; vs control or (R)- and (S)-1", "from_the_text": "Metal complexes often induce reactive oxygen species (ROS) generation in cells,[51] which may increase their cytotoxic activity compared to purely organic molecules. To study the impact of the synthesized compounds on ROS production, we have measured the ROS generation in SW620 cells by the dihydrorhodamine 123 (DHR123) oxidation assay (Figure 9). However, there is no correlation between the antiproliferative potential and the ability of a compound to generate ROS.\nDihydrorhodamine 123 oxidation was used as an indicator of intracellular ROS production. For this purpose, SW620 cells were seeded in 6-well plates at a density of 10^5 cells per well. The cells were left overnight (time needed for them to attach to the surface). Then, 1 μM tested compounds were added along with 1 μM DHR123. Additionally, since DHR123 is a substrate of ABCB1 (which may interfere in this assay), 10 μM verapamil, an inhibitor of this protein, was added. The cells were cultured for an additional 4 h at 37 °C, and then the cells were harvested by trypsinization, resuspended in a complete medium, and analyzed using a LSRII flow cytometer (Becton Dickinson) in a FITC channel (530/30 nm). The results are presented as a percentage of control (median fluorescence in the presence of DMSO).", "data": [{"smiles": "CC(C)[C@@H](N=Cc1ccccn1)c1nc2cc(Cl)ccc2c(=O)n1Cc1ccccc1.Cc1ccc(C(C)C)cc1.F[P-](F)(F)(F)(F)F.[Cl-].[Ru+2]", "note": "[Compound 3a, [(cym)Ru((R)-2)Cl]PF6]", "values": [{"measurement": "ROS generation (in words)", "result": "increase the level of ROS"}]}]}
